The values that follow are results of earlier work, collected in patent US12324431B2, “Compositions and methods for scalable production and delivery of biologicals” (priority 2017, dated 2025).

In the series the test system is insects. Conditions: potency similar to imidacloprid.

In the case of “orally active insecticidal peptide-1 [OAIP-1]”, the toxicity to insects result is “highly toxic”.
